Results reported in patent US6469013B2, “Therapeutic compounds” (Parker Hughes Institute, priority 1998, dated 2002).

Tested on: skh-1 mice
Experiment: Acute UVB skin inflammation: skinfold thickness, morphology, histology
Assay type: in vivo, mouse
Conditions: 48 h post UVB; UVB vehicle 3-5, normal 2-3
Text: A bank of 8-FSX24T12/HO/UVB lamps (National Biological Corporation, Twinsburg, Ohio) that emits light predominantly in the UVB range, 280-320 nm was used to irradiate mice and cell cultures. The irradiance of UVB lamps was always measured before irradiation using a UVB meter (model—500C obtained from National Biological Corporation, Twinsburg, Ohio). The dose of UVB light used to irradiate cultures was 25 mj/cm^2. Anesthetized mice received UVB radiations to a 2.0 cm^2 area on their dorsal surface. This area was painted either with the test compound (1.5 mg/cm^2) in drug receiving mice, or with vehicle in control mice fifteen minutes before irradiation. The distance between UVB lamps and surface receiving irradiation was 20 cm. The final radiation dose received by skh-1 hairless mice was 250 mj/cm^2 which is approximately seven times higher than the minimal erythema dose (MED) (17) in these mice. […]
Morphological appearance of the UVB irradiated skin was monitored visually and compared with the control mice skin. Skinfold thickness of the dorsal surface of the mice was recorded before, and everyday after UVB exposure for five days with a digital thickness gauge (Mitutoyo, So. Plainfield, N.J.) which measures thickness in 0-10 mm range with an accuracy of 0.015 mm. […]

COc1cc2ncnc(Nc3ccc(O)cc3)c2cc1OC [WHI-P131, 4-(4′-hydroxyl-phenyl)-amino-6,7-dimethoxyquinazoline]
cell layers of epidermis: 1-2 cell layers
